# According to patent publication US20130296311A1, “INHIBITORS OF HCV NS5A” (PRESIDIO PHARMACEUTICALS, INC., priority 2010, published 2013):
# Test system: HCV 1b_Huh-Luc/Neo-ET cell line persistently expressing a bicistronic genotype 1b replicon in Huh 7 cells
# Test: HCV replicon assay (luciferase readout, 72 h)
# Format: cell-based, HCV genotype 1b
# Conditions: Hepatitis C virus, Huh-7, 72 h, read-out: Inhibition of HCV genotype 1b
# In short: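 EC50 values come from a four-parameter fit of luciferase signal as % of untreated control, repeated across several determinations. The signal is from the HCV 1b_Huh-Luc/Neo-ET replicon line, dosed in triplicate one day post-plating and incubated 72 h before Bright-Glo readout.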
row,SMILES,EC50 [nM]
1,O=C(NC[C@@H]1CCCN1C(=O)[C@H](NC(=O)C1CC1)c1ccccc1)c1ccc(C#Cc2ccc(-c3cnc([C@@H]4CCCN4C(=O)[C@H](NC(=O)C4CC4)c4ccccc4)[nH]3)cc2)cc1 [Compound 193],< 1
2,COC(=O)N[C@@H](C(=O)N1CCC[C@H]1c1ncc(-c2ccc(C#Cc3ccc(-c4cnc([C@@H]5CCCN5C(=O)[C@H](NC(=O)[C@@H]5CCCN5)c5ccccc5)[nH]4)cc3)cc2)[nH]1)c1ccccc1 [Compound 206],< 1
3,COC(=O)N[C@H](C(=O)N1CCC[C@H]1c1ncc(-c2ccc(C#Cc3ccc4nc([C@@H]5CCCN5C(=O)[C@@H](NC(=O)OC)C(C)C)[nH]c4c3)cc2)[nH]1)C(C)C [Compound 802],< 1
4,COC(=O)N[C@@H](Cc1ccccc1)C(=O)N1CCC[C@H]1c1ncc(-c2ccc(C#Cc3ccc4nc([C@@H]5CCCN5C(=O)[C@H](Cc5ccccc5)NC(=O)OC)[nH]c4c3)cc2)[nH]1 [Compound 1045],< 1
5,C[C@H](NC(=O)[C@H](NC(=O)OC(C)(C)C)c1ccccc1)c1ncc(-c2ccc(C#Cc3ccc(-c4cnc([C@@H]5CCCN5C(=O)[C@H](NC(=O)OC(C)(C)C)c5ccccc5)[nH]4)cc3)cc2)[nH]1 [Compound 280],< 1
6,COC(=O)N[C@@H](C(=O)N1CCC[C@H]1c1ncc(-c2ccc(C#Cc3ccc(-c4cnc([C@@H]5CCCN5C(=O)[C@H](NC(=O)N5CCCC5)c5ccccc5)[nH]4)cc3)cc2)[nH]1)c1ccccc1 [Compound 243],< 1
7,C[C@@H](NC(=O)OC(C)(C)C)C(=O)N1CCC[C@H]1c1ncc(C#Cc2ccc(-c3cnc([C@@H]4CCCN4C(=O)[C@@H](C)NC(=O)OC(C)(C)C)[nH]3)cc2)[nH]1 [Compound 104],1 to 9.9
8,COC(=O)N[C@@H](C(=O)N1CCC[C@H]1c1ncc(-c2ccc(C#Cc3ccc4nc([C@@H]5CCCN5C(=O)[C@H](NC(=O)OC)C(C)C)[nH]c4c3)cc2)[nH]1)C(C)C [Compound 861],10 to 999
9,C[C@@H](NC(=O)[C@@H]1CCCN1C(=O)[C@H](NC(=O)C1CC1)c1ccccc1)c1ccc(C#Cc2cnc([C@@H]3CCCN3C(=O)[C@H](NC(=O)C3CC3)c3ccccc3)[nH]2)cc1 [Compound 135],> 1000
10,C=CC[C@H](NC(=O)OC)C(=O)N1CCC[C@H]1c1nc2ccc(C#Cc3ccc4c(c3)CCc3nc([C@@H]5CCCN5C(=O)[C@@H](NC(=O)OC)C(C)C)[nH]c3-4)cc2[nH]1 [Compound 1105],< 1
11,COC(=O)N[C@H](C(=O)N1CCC[C@H]1c1ncc(C#Cc2ccc(-c3ccc4nc([C@@H]5CCCN5C(=O)[C@H](NC(=O)OC)c5ccccc5)[nH]c4c3)nc2)[nH]1)C(C)C [Compound 1087],< 1
12,COC(=O)N[C@@H](C(=O)N1CCC[C@H]1c1ncc(-c2ccc(C#Cc3ccc(-c4cnc([C@@H]5CCCN5C(=O)[C@@H](c5ccccc5)N5CCCCC5)[nH]4)cc3)cc2)[nH]1)c1ccccc1 [Compound 188],< 1
13,C[C@H]1OC(=O)N(C)[C@@H]1C(=O)N1CCC[C@H]1c1ncc(-c2ccc(C#Cc3ccc(-c4cnc([C@@H]5CCCN5C(=O)[C@@H]5[C@@H](C)OC(=O)N5C)[nH]4)cc3)cc2)[nH]1 [Compound 980],10 to 999
14,COC(=O)N[C@H](C(=O)N1CCC[C@H]1c1nc(-c2cnc3cc(C#Cc4ccc(-c5cnc([C@@H]6CCCN6C(=O)[C@@H](NC(=O)OC)c6ccccc6)[nH]5)cc4)ccc3c2)c[nH]1)c1ccccc1 [Compound 1089],10 to 999
15,O=C(NCC(=O)N1CCC[C@H]1c1ncc(C#Cc2ccc(-c3cnc([C@@H]4CCCN4C(=O)CNC(=O)C4CC4)[nH]3)cc2)[nH]1)C1CC1 [Compound 113],10 to 999
16,COC(=O)N[C@@H](C)C(=O)N1CCC[C@H]1c1ncc(-c2ccc(C#Cc3ccc(-c4cnc([C@@H]5CCCN5C(=O)[C@H](C)NC(=O)OC)[nH]4)cc3)cc2)[nH]1 [Compound 962],< 1

row,SMILES,EC50 [nM]
1,CC(C)[C@@H](NC(=O)OC(C)(C)C)C(=O)N1CCC[C@H]1C(=O)Nc1ccc(C#Cc2cnc([C@@H]3CCCN3C(=O)[C@H](NC(=O)OC(C)(C)C)C(C)C)[nH]2)cc1 [Compound 114],10 to 999
2,COC(=O)N[C@H](C(=O)N1CCC[C@H]1c1ncc(-c2ccc3cc(C#Cc4ccc5nc([C@@H]6CCCN6C(=O)[C@@H](NC(=O)OC)C(C)C)[nH]c5c4)ccc3c2)[nH]1)C(C)C [Compound 1111],< 1
3,COC(=O)N[C@H](C(=O)N1CCC[C@H]1c1ncc(-c2ccc(C#Cc3ccc4nc([C@@H]5CCCN5C(=O)[C@@H](NC(=O)OC)C5CCOCC5)[nH]c4c3)cc2F)[nH]1)C1CCOCC1 [Compound 1070],< 1
4,CCN(CC)[C@@H](C(=O)N1CCC[C@H]1c1ncc(-c2ccc(-c3ccc(C#Cc4cnc([C@@H]5CCCN5C(=O)[C@H](NC(=O)OC)c5ccccc5)[nH]4)cc3)cc2)[nH]1)c1ccccc1 [Compound 751],< 1
5,COC(=O)N[C@H](C(=O)N[C@@H](C)c1ncc(-c2ccc(C#Cc3ccc(-c4cnc([C@@H]5CCCN5C(=O)[C@H](C(C)C)N(C)C)[nH]4)cc3)cc2)[nH]1)C(C)C [Compound 963],1 to 9.9
6,C[C@@H](NC(=O)[C@@H]1CCCN1C(=O)[C@H](NC(=O)C1CC1)c1ccccc1)c1ccc(C#Cc2ccc(-c3cnc([C@@H]4CCCN4C(=O)[C@H](NC(=O)C4CC4)c4ccccc4)[nH]3)cc2)cc1 [Compound 168],< 1
7,O=C(N[C@@H](C(=O)N1CCC[C@H]1c1nc(-c2ccc3cc(C#Cc4cnc([C@@H]5CCCN5C(=O)[C@H](NC(=O)C5CC5)c5ccccc5)[nH]4)ccc3c2)c[nH]1)c1ccccc1)C1CC1 [Compound 804],< 1
8,CC(C)[C@H](NC(=O)N1CCC(O)CC1)C(=O)N1CCC[C@H]1c1ncc(-c2ccc(C#Cc3ccc(-c4cnc([C@@H]5CCCN5C(=O)[C@@H](NC(=O)N5CCC(O)CC5)C(C)C)[nH]4)cc3)cc2)[nH]1 [Compound 286],> 1000
9,CCN(CC)[C@@H](C(=O)N1CCC[C@H]1c1ncc(-c2ccc(C#Cc3ccc(-c4cnc([C@@H]5CCCN5C(=O)[C@H](NS(C)(=O)=O)c5ccccc5)[nH]4)cc3)cc2)[nH]1)c1ccccc1 [Compound 229],< 1
10,COC(=O)N[C@@H](C(=O)N1CCC[C@H]1c1ncc(-c2ccc(C#Cc3ccc(-c4cnc([C@@H]5CCCN5C(=O)[C@H](NC(=O)N5CC[C@H](F)C5)c5ccccc5)[nH]4)cc3)cc2)[nH]1)c1ccccc1 [Compound 270],< 1
11,O=C(N[C@@H](C(=O)N1CCC[C@H]1c1cc(-c2ccc(C#Cc3ccc(-c4cnc([C@@H]5CCCN5C(=O)[C@H](NC(=O)N5CCOCC5)c5ccccc5)[nH]4)cc3)cc2)n[nH]1)c1ccccc1)N1CCOCC1 [Compound 220],< 1
12,COC(=O)N[C@H](C(=O)N1CCC[C@H]1c1nc2ccc3cc(C#Cc4ccc(-c5cnc([C@@H]6CCCN6C(=O)[C@H](NC(=O)OC)c6ccccc6)[nH]5)cc4)ccc3c2[nH]1)C(C)C [Compound 1093],< 1
13,COC(=O)N[C@@H](C(=O)N1CCC[C@H]1c1ncc(-c2ccc(C#Cc3ccc(-c4cnc([C@@H]5CCCN5C(=O)[C@H](NC(=O)N5CC[C@H](O)C5)c5ccccc5)[nH]4)cc3)cc2)[nH]1)c1ccccc1 [Compound 269],< 1
14,COC(=O)N[C@H](C(=O)N[C@@H](C)c1ncc(-c2ccc(C#Cc3ccc(-c4cnc([C@H](C)NC(=O)[C@@H](NC(=O)OC)C(C)C)[nH]4)cc3)cc2)[nH]1)C(C)C [Compound 951],< 1
15,COC(=O)N[C@@H](C(=O)N1CCC[C@H]1c1ncc(-c2ccc(C#Cc3ccc(-c4cnc([C@@H]5CCCN5C(=O)[C@H](NC(=O)N5CCOCC5)c5ccccc5)[nH]4)cc3)cc2)[nH]1)c1ccccc1 [Compound 224],< 1

# Same assay, conditions: Hepatitis C virus, Huh-7, read-out: Inhibition of HCV genotype 1b
row,SMILES,EC50 [nM]
1,COC[C@H](NC(=O)OC)C(=O)N1CCC[C@H]1c1nc2ccc(C#Cc3ccc(-c4cnc([C@@H]5CCCN5C(=O)[C@@H](NC(=O)OC)C(C)C)[nH]4)cc3)cc2[nH]1 [Compound 1243],< 1
2,COC(=O)N[C@H](C(=O)N1CCC[C@H]1c1nc(C#N)c(C#Cc2ccc3cc(-c4cnc([C@@H]5CCCN5C(=O)[C@@H](NC(=O)OC)[C@@H](C)OC)[nH]4)ccc3c2)[nH]1)C1CCCC1 [Compound 1270],< 1
3,COC(=O)N[C@H](C(=O)N1CCC[C@H]1c1ncc(-c2ccc(C#Cc3ccc4nc([C@@H]5CCCN5C(=O)[C@@H](NC(=O)OC)[C@@H](C)OC)[nH]c4c3)cc2)[nH]1)C(C)C [Compound 1242],< 1
4,COC(=O)N[C@H](C(=O)N1CCC[C@H]1c1ncc(-c2ccc(C#Cc3ccc4nc([C@@H]5CCCN5C(=O)[C@@H](NC(=O)OC)C5CCCOC5)[nH]c4c3)cc2)[nH]1)C(C)C (some centres unmarked) [Compound 1244],< 1
5,C=CC[C@H](NC(=O)OC)C(=O)N1CCC[C@H]1c1nc2ccc(C#Cc3ccc4c(ccc5nc([C@@H]6CCCN6C(=O)[C@@H](NC(=O)OC)C(C)C)[nH]c54)c3)cc2[nH]1 [Compound 1277],< 1
6,COC(=O)N[C@H](C(=O)N1CCC[C@H]1c1nc2ccc(C#Cc3ccc(-c4cnc([C@@H]5CCCN5C(=O)[C@@H](NC(=O)OC)C5CCOCC5)[nH]4)cc3)cc2[nH]1)C(C)C [Compound 1237],< 1
7,COC(=O)N[C@H](C(=O)N1CCC[C@H]1c1ncc(-c2ccc(C#Cc3ccc(-c4cnc([C@@H]5CCCN5C(=O)[C@@H](NC(=O)OC)C(C)C)[nH]4)cc3C(=O)N3CCCC3)cc2)[nH]1)C(C)C [Compound 1208],< 1
8,COC(=O)N[C@H](C(=O)N1CCC[C@H]1c1nc(C)c(C#Cc2ccc3cc(-c4cnc([C@@H]5CCCN5C(=O)[C@@H](NC(=O)OC)[C@@H](C)OC)[nH]4)ccc3c2)[nH]1)C(C)C [Compound 1264],< 1
9,COC(=O)N[C@H](C(=O)N1CCC[C@H]1c1ncc(-c2ccc(C#Cc3ccc(-c4cnc([C@@H]5CN(C(=O)OC)CCN5C(=O)[C@@H](NC(=O)OC)C(C)C)[nH]4)cc3)cc2)[nH]1)C(C)C [Compound 1204],< 1
10,COC(=O)N[C@H](C(=O)N1CCC[C@H]1c1ncc(-c2ccc3cc(C#Cc4[nH]c([C@@H]5CCCN5C(=O)[C@@H](NC(=O)OC)C(C)C)nc4C4CC4)ccc3c2)[nH]1)C(C)C [Compound 1300],< 1
